# Measurements published in PMC7594025, “Synthesis, Docking, 3-D-Qsar, and Biological Assays of Novel Indole Derivatives Targeting Serotonin Transporter, Dopamine D2 Receptor, and Mao-A Enzyme: In the Pursuit for Potential Multitarget Directed Ligands” (Molecules, 2020).
# Assays:
# SERT = molecular target: T1, SERT (Homo sapiens, UniProt P31645); assay: SERT competitive binding assay, [3H]-paroxetine, membranes from HEK-293 clonal cell line overexpressing SERT; details: 2 nM [3H]-paroxetine, 1 h at 27 °C; mean ± SEM of three experiments, each in triplicate; read-out: Ki SERT
# T1 construct: purchased Perkin-Elmer (Boston, MA, USA) RBHSTM400UA; host or cells: HEK-293 clonal cell line
# T1 sequence (P31645 whole entry): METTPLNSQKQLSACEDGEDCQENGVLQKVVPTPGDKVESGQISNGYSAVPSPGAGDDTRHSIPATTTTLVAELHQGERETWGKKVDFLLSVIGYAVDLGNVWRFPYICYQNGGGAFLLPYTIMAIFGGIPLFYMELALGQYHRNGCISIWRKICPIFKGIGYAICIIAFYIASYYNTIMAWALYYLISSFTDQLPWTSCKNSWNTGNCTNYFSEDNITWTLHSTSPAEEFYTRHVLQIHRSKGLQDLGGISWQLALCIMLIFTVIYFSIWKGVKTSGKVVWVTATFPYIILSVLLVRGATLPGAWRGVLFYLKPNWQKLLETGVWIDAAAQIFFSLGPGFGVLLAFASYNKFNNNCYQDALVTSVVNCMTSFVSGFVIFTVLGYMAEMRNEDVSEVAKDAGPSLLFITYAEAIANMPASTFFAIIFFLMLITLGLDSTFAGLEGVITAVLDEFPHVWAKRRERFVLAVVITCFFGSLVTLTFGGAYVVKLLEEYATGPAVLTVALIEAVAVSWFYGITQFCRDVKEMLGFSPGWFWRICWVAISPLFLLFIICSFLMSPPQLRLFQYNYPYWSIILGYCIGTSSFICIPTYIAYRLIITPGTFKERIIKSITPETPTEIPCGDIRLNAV
# Experimental: To determine the binding of all compounds at SERT, competitive binding assays were performed according to previously reported procedures with some modifications. […] Control curve was performed with fluoxetine in the same experimental conditions. Non-specific binding was determined with 10 µM fluoxetine.
# The IC50 and Ki values correspond to the results of three independent experiments, each in triplicate. All data are expressed as the mean ± SEM.
# rat MAO-A = molecular target: T2, rat MAO-A (Rattus norvegicus, UniProt P21396); assay: MAO-A inhibition, crude rat brain mitochondrial suspension, serotonin substrate, HPLC-ED; type: biochemical; details: 100 µM compound; serotonin 100 µM as substrate
# T2 construct: using a crude rat brain mitochondrial suspension as a source of enzyme; from tissue; host or cells: rat brain (crude mitochondrial suspension)
# T2 sequence (P21396 1-526): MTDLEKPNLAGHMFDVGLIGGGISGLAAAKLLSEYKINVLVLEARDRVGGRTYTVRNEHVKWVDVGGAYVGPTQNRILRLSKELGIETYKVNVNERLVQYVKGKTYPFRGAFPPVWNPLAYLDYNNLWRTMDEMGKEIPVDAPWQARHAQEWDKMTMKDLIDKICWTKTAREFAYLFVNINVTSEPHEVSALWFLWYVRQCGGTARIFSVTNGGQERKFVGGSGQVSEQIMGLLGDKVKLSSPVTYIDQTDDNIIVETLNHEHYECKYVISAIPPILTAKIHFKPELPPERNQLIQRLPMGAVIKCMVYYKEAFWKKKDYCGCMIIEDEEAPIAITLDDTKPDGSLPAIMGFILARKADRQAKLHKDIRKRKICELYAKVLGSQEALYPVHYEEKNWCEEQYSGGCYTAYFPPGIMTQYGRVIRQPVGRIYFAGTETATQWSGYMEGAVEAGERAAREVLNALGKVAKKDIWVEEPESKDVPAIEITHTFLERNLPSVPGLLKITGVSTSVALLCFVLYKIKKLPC
# Experimental: The effects of the compounds on rat MAO-A activity were studied following a previously reported methodology, using a crude rat brain mitochondrial suspension as a source of enzyme. Serotonin (100 µM) was used as the selective substrate for MAO-A. This compound and its metabolite were detected by HPLC with electrochemical detection. As an exploratory evaluation, the percentage of MAO-A inhibition in the presence of 100 µM of the different compounds was determined, with the idea of evaluating in detail those compounds showing an inhibitory activity in the range of 70–100%.
# D2 receptor = molecular target: T3, D2 receptor (Homo sapiens, UniProt P14416); assay: D2 receptor competitive binding assay, [3H]-methylspiperone, membranes from CHO-K1 clonal cell line overexpressing D2 receptor; details: 0.5 nM [3H]-methylspiperone, 2 h at 27 °C; mean ± SEM of three experiments, each in triplicate
# T3 construct: purchased Perkin-Elmer (Boston, MA, USA) RBHD2CM400UA; host or cells: CHO-K1 clonal cell line
# T3 sequence (P14416 whole entry): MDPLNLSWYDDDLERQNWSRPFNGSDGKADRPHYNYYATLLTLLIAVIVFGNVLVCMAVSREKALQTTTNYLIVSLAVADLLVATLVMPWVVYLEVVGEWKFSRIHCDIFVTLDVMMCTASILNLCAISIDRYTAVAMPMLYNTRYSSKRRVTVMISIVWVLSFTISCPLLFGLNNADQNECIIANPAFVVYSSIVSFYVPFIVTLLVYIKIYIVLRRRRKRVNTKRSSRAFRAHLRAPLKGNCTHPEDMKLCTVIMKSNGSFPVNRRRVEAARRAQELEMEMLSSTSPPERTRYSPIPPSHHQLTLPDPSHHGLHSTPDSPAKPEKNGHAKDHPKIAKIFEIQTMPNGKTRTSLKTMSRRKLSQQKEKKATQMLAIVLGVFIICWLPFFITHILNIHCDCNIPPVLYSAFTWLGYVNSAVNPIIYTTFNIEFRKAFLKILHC
# Experimental: To determine the binding of all compounds at D2 receptor, competitive binding assays were performed according to provider indications with some modifications. […] Radioactivity was counted as described before.
Ki (SERT) [nM],inhibition at 100 µM (rat MAO-A) [%],melting point [°C],Ki (D2 receptor) [µM],SMILES
200 ± 14.5,9.4,73.8 to 74.7,4.7 ± 0.168,"O=C(CN1CCN(CCCc2c[nH]c3ccc(Br)cc23)CC1)Nc1ccc(F)cc1C(=O)NCCN1CCOCC1 [Compound 13h, 5-Fluoro-2-(2-{4-[3-(5-bromo-1H-3-indolyl)-propyl]-1-piperazinyl}-acetylamino)-N-(2-morpholin-4-yl-ethyl) Benzamide]"
26.8 ± 0.91,34,69.7 to 71.5,4.17 ± 0.335,"O=C(CN1CCN(CCCc2c[nH]c3ccccc23)CC1)Nc1ccc(F)c(C(=O)NCCN2CCOCC2)c1 [Compound 13k, 2-Fluoro-5-(2-{4-[3-(1H-3-indolyl)-propyl]-1-piperazinyl}-acetylamino)-N-(2-morpholin-4-yl-ethyl) Benzamide]"
52.2 ± 3.24,34,68.1 to 69.6,2 ± 0.034,"O=C(CN1CCN(CCCc2c[nH]c3ccccc23)CC1)Nc1ccc(F)cc1C(=O)NCCN1CCOCC1 [Compound 13l, 5-Fluoro-2-(2-{4-[3-(1H-3-indolyl)-propyl]-1-piperazinyl}-acetylamino)-N-(2-morpholin-4-yl-ethyl) Benzamide]"
